Experiments:
Format in all cases: cell-based, human
K562 cells = assay: Cell morphology by microscopy, K562; details: 48 hours
Procedure: 10^5/ml K562 cells were treated with cucurbitacin B in the presence of complete medium containing 10% FBS for 48 hours. The changes in cell morphology were visualized using Leica DMIL (Leica Microsystem). Cells were harvested and rinsed twice with ice-cold PBS (pH7.4) and a total 2.5×10^5 K562 cells were stained with 10 μl Annexin V and 10 μl propidium iodide in 100 μl 1×binding buffer for 15 minutes in dark and then subjected to apoptosis analysis with FACSCalibar Flow cytometer system (FACS Calibur BD Flow Cytometer). • 6.1.5 Flow Cytometry for Cell Cycle Analysis
After 48 hours of cucurbitacin B treatment, the cells were viewed using a Leica DMIL microscope at 400×magnification. […] However, the treated cells lost the rounded shape and shrank in size at the highest dose of cucurbitacin B used (80nM).

HL60 and U937 cells = assay: Cell cycle analysis by flow cytometry, myeloid leukemia cells; details: 96 hours
Procedure: HL60 and U937 cells were incubated with vary doses of cucurbitacin B for 96 hours at 37° C. For analysis of cell differentiaion, cells were then incubated with either R-phycoerythrin-conjugated murine anti-human CD11b antibody (DAKO, Carpinteria, Calif.). For analysis of cell cycle, cells were washed and fixed with chilled methanol, and incubated on ice for 30 minutes prior to staining with propidium iodide. All analyses were performed by flow cytometry.

hsp27 = assay: Western blot of hsp27 in HepG2, HT29 and MCF-7 cells
Procedure: The human cancer cells line were serum starved for 18 hours prior to CuB/CuD treatment. Cells were incubated in a 6-well plate filled with 5 ml growth medium (RPMI with 0.2% FBS and 1% PS) at the cell density of 1×10^5 cells/ml, in the presence or absence of two different dosages of CuB/CuD for various time intervals. The drug treatment was terminated by centrifugation at 1,500 rpm for 5 minutes and the cells were rinsed twice with phosphate-buffered saline and lysed at 4° C. in a lysis buffer containing 50 mM Tris-HCl, pH7.5, 100 mM NaCl, 5 mM EDTA, 40 mM NaP2O7, 1% Triton X-100, 1 mM dithiothreitol, 200 μM Na3VO4, 100 uM phenylmethysufonyl fluoride, 2 μg/ml leupeptin, 4 μg/ml aprotinin and 0.7 μg/ml pepstatin. The insoluble protein lysate were removed by centrifugation for 10 minutes at 13,000 rpm. Fifteen micrograms of protein lysate was resolved using 10% SDS-polyacryamide gel electrophoresis (PAGE) and then subjected to western blot anaylsis. Western blots were performed with anti-Stat3, anti-Erk1/2 and anti-hsp27 antibodies specific for phosphor- and total Stat3, Erk and hsp27 proteins. The protein bands were then visualized with the Enhanced Chemiluminescence Plus (ECL Plus) detection system (Amersham). • 6.2.8.1 Inhibition Effect Cucurbitacin B/Cucurbitacin D on Stat3 Activation in HepG2 and HT29 Cells
Cells were incubated either with CuB or CuD (25 ug/ml or the dosage of IC50) for various time intervals (5, 10 or 30 mins, 1 or 4 hours). The Stat3 activation was detected by western blot.

Jak, Stat3 and c-raf = assay: Western blot of phosphorylated Jak, Stat3 and c-raf in Panc-1 cells; details: IC50 dosage (0.8 uM)
Procedure: The drug treatment was terminated and the cells were rinsed twice with phosphate-buffered saline and lysed at 4° C. in a lysis buffer containing 50 mM Tris-HCl, pH7.5, 100 mM NaCl, 5 mM EDTA, 40 mM NaP2O7, 1% Triton X-100, 1 mM dithiothreitol, 200 μM Na3VO4, 100 uM phenylmethysufonyl fluoride, 2 μg/ml leupeptin, 4 μg/ml aprotinin and 0.7 μg/ml pepstatin. The insoluble protein lysate were removed by centrifugation for 10 minutes at 12,000 rpm. Fifty micrograms of protein lysate was resolved using 10% SDS-polyacryamide gel electrophoresis (PAGE) and then subjected to western blot anaylsis. Western blots were performed with antibodies specific for phosphor- and Jak, Stat3 and c-raf proteins. […] The protein bands were then visualized with the Enhanced Chemiluminescence Plus (ECL Plus) detection system (Amersham).
The proteins activation was detected by western blot.
Cell lysate (50 μg) of each sample was separated in 10% SDS-PAGE followed by immuno-blotting with anti-jak1 anti-jak2, anti-jak3, anti-Stat3 and c-raf antibodies to detect the phosphorylated form of jak1, jak2, jak3, Stat3 and c-raf.

In the case of CC(=O)OC(C)(C)/C=C/C(=O)[C@](C)(O)C1[C@H](O)C[C@@]2(C)C3CC=C4C(C[C@H](O)C(=O)C4(C)C)[C@]3(C)C(=O)C[C@]12C (some centres unmarked) [cucurbitacin B], the “changes in cell morphology” value (K562 cells; 20 nM and 40 nM) is reported as “increase in cell size”, the “changes in cell morphology” value (K562 cells; 80 nM) is reported as “shrinkage of cell size” and the cell cycle effect (HL60 and U937 cells) is reported as “significant S-phase cell cycle arrest”. The Hsp27 activation (hsp27; HT29, 10 minutes) was “significant up-regulation”, the Hsp27 activation (hsp27; HepG2, 30 minutes) was “significant up-regulation” and the Hsp27 activation (hsp27; MCF-7, 4 hours) was “significant up-regulation”. The “Jak and c-raf activation” value (Jak, Stat3 and c-raf; 4 hours) was “inhibited significantly” and the Stat3 activation (Jak, Stat3 and c-raf; 24 hours) was “inhibited significantly”.
